# Source: patent US20200131132A1, “FARNESOID X RECEPTOR AGONISTS AND USES THEREOF” (Metacrine, Inc., priority 2017, published 2020)
# Target: T1, hFXR (Homo sapiens, UniProt Q96RI1)
# T1 construct: expressed in transfected cells; host or cells: CV-1 cells
# T1 sequence (Q96RI1 1-486): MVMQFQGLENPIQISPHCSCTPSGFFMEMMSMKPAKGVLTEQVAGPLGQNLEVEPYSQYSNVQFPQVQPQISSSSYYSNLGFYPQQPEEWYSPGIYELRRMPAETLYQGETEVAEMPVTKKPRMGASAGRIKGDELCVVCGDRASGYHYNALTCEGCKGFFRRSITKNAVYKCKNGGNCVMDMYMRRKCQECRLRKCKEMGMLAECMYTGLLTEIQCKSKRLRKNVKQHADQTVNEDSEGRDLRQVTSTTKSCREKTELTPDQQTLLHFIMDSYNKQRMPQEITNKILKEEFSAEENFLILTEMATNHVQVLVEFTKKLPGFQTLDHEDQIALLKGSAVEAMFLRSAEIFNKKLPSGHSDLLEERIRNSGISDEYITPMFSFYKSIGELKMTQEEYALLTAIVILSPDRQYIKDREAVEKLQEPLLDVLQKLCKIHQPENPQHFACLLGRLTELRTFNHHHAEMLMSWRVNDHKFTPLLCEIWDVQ
# T1 sequence (P19793 1-462 partner): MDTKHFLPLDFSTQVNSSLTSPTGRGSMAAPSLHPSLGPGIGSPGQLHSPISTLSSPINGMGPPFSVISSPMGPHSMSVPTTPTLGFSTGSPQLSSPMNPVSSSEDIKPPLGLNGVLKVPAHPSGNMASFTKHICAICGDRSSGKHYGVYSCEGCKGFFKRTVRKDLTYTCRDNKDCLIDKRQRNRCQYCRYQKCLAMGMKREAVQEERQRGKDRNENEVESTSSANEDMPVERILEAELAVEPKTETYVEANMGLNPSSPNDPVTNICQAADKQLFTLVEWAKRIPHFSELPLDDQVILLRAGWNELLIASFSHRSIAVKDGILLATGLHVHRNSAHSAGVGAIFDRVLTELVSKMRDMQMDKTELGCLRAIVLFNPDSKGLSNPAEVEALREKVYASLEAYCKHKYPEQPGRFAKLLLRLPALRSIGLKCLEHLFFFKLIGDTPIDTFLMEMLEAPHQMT
# Test: In Vitro FXR Assay (TK)
# Format: cell-based
# Settings: CV-1 cells transfected with hFXR, hRXR, TK-ECRE-luc and pCMX-YFP; compounds incubated 18 hrs; luminescence
# Experimental: CV-1 cells were seeded at a density of 2,000,000 cells in a T175 flask with DMEM+10% charcoal double-stripped FBS and incubated at 37° C. in 5% CO2 for 18 h (O/N).
# After 18 h of incubation, the medium in the T175 flask was changed with fresh DMEM+10% charcoal super-stripped serum. In a polypropylene tube, 2500 μL OptiMEM (Life Technologies, Cat #31985-062) was combined with expression plasmids for hFXR, hRXR, TK-ECRE-luc and pCMX-YFP. The tube was then briefly vortexed and incubated at room temperature for 5 minutes. Transfection reagent (X-tremeGENE HP from Roche, Cat #06 366 236 001) was added to the OptiMEM/plasmid mixture vortexed and incubated at room temperature for 20 minutes. Following incubation, the transfection reagent/DNA mixture complex was added to cells in the T175 flask and the cells were incubated at 37° C. in 5% CO2 for 18 h (O/N).
# Compounds were serially diluted in DMSO and added to transfected CV-1 cells. The cells were then incubated for 18 hrs. The next day cells were lysed and examined for luminescence.
row,Compound,EC50 [nM]
1,"COc1ccc(-c2ccc(CN(C(=O)CC(C)(C)C)c3nccc4cc(COCCO)ccc34)cc2)cc1C [Compound 2.02, N-(6-((2-Hydroxyethoxy)methyl)isoquinolin-1-yl)-N-((4′-methoxy-3′-methyl-[1,1′-biphenyl]-4-yl)methyl)-3,3-dimethylbutanamide]",≤ 1000
2,"COc1ccc(-c2ccc(CN(C(=O)CC(C)(C)C)c3nccc4cc(OC(C)CO)ccc34)cc2)cc1C (stereo not shown) [Compound 31, N-(6-((1-Hydroxypropan-2-yl)oxy)isoquinolin-1-yl)-N-((4′-methoxy-3′-methyl-[1,1′-biphenyl]-4-yl)methyl)-3,3-dimethylbutanamide]",≤ 1000
3,"COc1ccc(-c2ccc(CN(C(=O)CC(C)(C)C)c3nccc4cc(CO)ccc34)cc2)cc1C [Compound 2.01, N-(6-(Hydroxymethyl)isoquinolin-1-yl)-N-((4′-methoxy-3′-methyl-[1,1′-biphenyl]-4-yl)methyl)-3,3-dimethylbutanamide]",≤ 1000
4,"COCCOc1ccc2c(N(Cc3ccc(-c4ccc(OC)c(C)c4)cc3)C(=O)CC(C)(C)C)nccc2c1 [Compound 9, N-((4′-Methoxy-3′-methyl-[1,1′-biphenyl]-4-yl)methyl)-N-(6-(2-methoxyethoxy)isoquinolin-1-yl)-3,3-dimethylbutanamide]",≤ 1000
5,"COc1ccc(-c2ccc(CN(C(=O)CC(C)(C)C)c3nccc4cc(OCC(C)CO)ccc34)cc2)cc1C (stereo not shown) [Compound 10, N-(6-(3-Hydroxy-2-methylpropoxy)isoquinolin-1-yl)-N-((4′-methoxy-3′-methyl-[1,1′-biphenyl]-4-yl)methyl)-3,3-dimethylbutanamide]",≤ 1000
6,"CCOc1ccc2c(N(Cc3ccc(-c4ccc(OC)c(C)c4)cc3)C(=O)CC(C)(C)C)nccc2c1 [Compound 11, N-(6-Ethoxyisoquinolin-1-yl)-N-((4′-methoxy-3′-methyl-[1,1′-biphenyl]-4-yl)methyl)-3,3-dimethylbutanamide]",≤ 1000
7,"COc1ccc([C@H]2CC[C@H](CN(C(=O)CC(C)(C)C)c3nccc4cc(C)ccc34)CC2)cc1C [Compound 3, N-((trans-4-(4-Methoxy-3-methylphenyl)cyclohexyl)methyl)-3,3-dimethyl-N-(6-methylisoquinolin-1-yl)butanamide]",≤ 1000
8,"COc1ccc(-c2ccc(CN(C(=O)CC(C)(C)C)c3nccc4cc(O)ccc34)cc2)cc1C [Compound 7, N-(6-Hydroxyisoquinolin-1-yl)-N-((4′-methoxy-3′-methyl-[1,1′-biphenyl]-4-yl)methyl)-3,3-dimethylbutanamide]",≤ 1000
9,COc1ccc2c(N(C[C@H]3CC[C@H](c4ccc(OC)c(C)c4)CC3)C(=O)CC(C)(C)C)nccc2c1 [Compound 1],≤ 1000
10,"COc1ccc(-c2ccc(CN(C(=O)CC(C)(C)C)c3nccc4cc(/C=C/CO)ccc34)cc2)cc1C [Compound 23, (E)-N-(6-(3-Hydroxyprop-1-en-1-yl)isoquinolin-1-yl)-N-((4′-methoxy-3′-methyl-[1,1′-biphenyl]-4-yl)methyl)-3,3-dimethylbutanamide]",≤ 1000
11,"COc1ccc(-c2ccc(CN(C(=O)CC(C)(C)C)c3nccc4cc(C)ccc34)cc2)cc1C [Compound 12, N-((4′-Methoxy-3′-methyl-[1,1′-biphenyl]-4-yl)methyl)-3,3-dimethyl-N-(6-methylisoquinolin-1-yl)butanamide]",≤ 1000
12,"COc1ccc(-c2ccc(CN(C(=O)CC(C)(C)C)c3nccc4cc(OCCCO)ccc34)cc2)cc1C [Compound 8, N-(6-(3-Hydroxypropoxy)isoquinolin-1-yl)-N-((4′-methoxy-3′-methyl-[1,1′-biphenyl]-4-yl)methyl)-3,3-dimethylbutanamide]",≤ 1000

# Further lines, results first:
row,EC50 [nM],Compound
1,≤ 1000,"COc1ccc(-c2ccc(CN(C(=O)CC(C)(C)C)c3nccc4cccnc34)cc2)cc1C [Compound 4.09, N-((4′-Methoxy-3′-methyl-[1,1′-biphenyl]-4-yl)methyl)-3,3-dimethyl-N-(1,7-naphthyridin-8-yl)butanamide]"
2,≤ 1000,"COc1ccc(-c2ccc(CN(C(=O)CC(C)(C)C)c3nccc4cc(OCCCO)cnc34)cc2)cc1C [Compound 8.13, N-(3-(3-Hydroxypropoxy)-1,7-naphthyridin-8-yl)-N-((4′-methoxy-3′-methyl-[1,1′-biphenyl]-4-yl)methyl)-3,3-dimethylbutanamide]"
3,1000 to 10000,"COc1ccc(-c2ccc(CN(C(=O)CC(C)(C)C)c3nccc4cc(OC5CNC5)ccc34)cc2)cc1C [Compound 28.01, N-(6-(Azetidin-3-yloxy)isoquinolin-1-yl)-N-((4′-methoxy-3′-methyl-[1,1′-biphenyl]-4-yl)methyl)-3,3-dimethylbutanamide]"
4,1000 to 10000,"COc1ccc(-c2ccc(CN(C(=O)CC(C)(C)C)c3nccc4cc(COCC(=O)N(C)C)ccc34)cc2)cc1C [Compound 19.02, N-(6-((2-(Dimethylamino)-2-oxoethoxy)methyl)isoquinolin-1-yl)-N-((4′-methoxy-3′-methyl-[1,1′-biphenyl]-4-yl)methyl)-3,3-dimethylbutanamide]"
5,≤ 1000,"COc1ccc(-c2ccc(CN(C(=O)CC(C)(C)C)c3nccc4cc(N5CC(O)C5)ccc34)cc2)cc1C [Compound 6.03, N-(6-(3-Hydroxyazetidin-1-yl)isoquinolin-1-yl)-N-((4′-methoxy-3′-methyl-[1,1′-biphenyl]-4-yl)methyl)-3,3-dimethylbutanamide]"
6,1000 to 10000,"CNC(=O)COc1ccc2c(N(Cc3ccc(-c4ccc(OC)c(C)c4)cc3)C(=O)CC(C)(C)C)nccc2c1 [Compound 8.01, N-((4′-Methoxy-3′-methyl-[1,1′-biphenyl]-4-yl)methyl)-3,3-dimethyl-N-(6-(2-(methylamino)-2-oxoethoxy)isoquinolin-1-yl)butanamide]"
7,> 10000,"COc1ccc(-c2ccc(CN(C(=O)CC(C)(C)C)c3nccc4c(C#N)cccc34)cc2)cc1C [Compound 13.02, N-(5-Cyanoisoquinolin-1-yl)-N-((4′-methoxy-3′-methyl-[1,1′-biphenyl]-4-yl)methyl)-3,3-dimethylbutanamide]"
8,≤ 1000,"COc1ccc(-c2ccc(CN(C(=O)CC(C)(C)C)c3nccc4ccsc34)cc2)cc1C [Compound 4.04, N-((4′-Methoxy-3′-methyl-[1,1′-biphenyl]-4-yl)methyl)-3,3-dimethyl-N-(thieno[2,3-c]pyridine-7-yl)butanamide]"
9,≤ 1000,"COc1ccc(-c2ccc(CN(C(=O)CC(C)(C)C)c3nccc4cc(N5CCC(O)CC5)ccc34)cc2)cc1C [Compound 6.18, N-(6-(4-Hydroxypiperidin-1-yl)isoquinolin-1-yl)-N-((4′-methoxy-3′-methyl-[1,1′-biphenyl]-4-yl)methyl)-3,3-dimethylbutanamide]"
10,≤ 1000,"COc1ccc(-c2ccc(CN(C(=O)CC(C)(C)C)c3nccc4cc(OC(C)C)ccc34)cc2)cc1C [Compound 11.01, N-(6-Isopropoxyisoquinolin-1-yl)-N-((4′-methoxy-3′-methyl-[1,1′-biphenyl]-4-yl)methyl)-3,3-dimethylbutanamide]"
11,1000 to 10000,"CNC(=O)c1ccc2c(N(Cc3ccc(-c4ccc(OC)c(C)c4)cc3)C(=O)CC(C)(C)C)nccc2c1 [Compound 19.01, 1-(N-((4′-Methoxy-3′-methyl-[1,1′-biphenyl]-4-yl)methyl)-3,3-dimethylbutanamido)-N-methylisoquinoline-6-carboxamide]"
12,≤ 1000,"COc1ccc(-c2ccc(CN(C(=O)CC(C)(C)C)c3nccc4cc(NCCO)ccc34)cc2)cc1C [Compound 6.02, N-(6-((2-Hydroxyethyl)amino)isoquinolin-1-yl)-N-((4′-methoxy-3′-methyl-[1,1′-biphenyl]-4-yl)methyl)-3,3-dimethylbutanamide]"
13,≤ 1000,"COc1ccc(-c2ccc(CN(C(=O)CC(C)(C)C)c3nccc4cc(N5CCC(OC)C5)ccc34)cc2)cc1C (stereo not shown) [Compound 6.19, N-((4′-Methoxy-3′-methyl-[1,1′-biphenyl]-4-yl)methyl)-N-(6-(3-methoxypyrrolidin-1-yl)isoquinolin-1-yl)-3,3-dimethylbutanamide]"
